Results on one compound are retold here after US9399145B2, “Nanoscale neuromodulating platform for retina neuron activation apparatus and method” (The Board of Trustees of the University of Illinois, priority 2005, dated 2016).

In this assay the test system is Purkinje neurons (PNs) of the cerebellar slice. Description: Whole-cell current clamp of Purkinje neurons, action potential firing. Format: cell-based, mouse. Here is the method: The effects of MPC088 on action potential firing in PNs of the cerebellar slice were also examined. These experiments were similar to those, except that the cells were recorded under current-clamp in order to allow the cell to spike. […] Representative data was obtained by whole-cell current-clamp recording from a PN which was injected with 468 pA to elicit a high-frequency train of action potentials. […] The cell was then exposed for 1-s durations to UV light (UV1), then blue light, and then again with UV (UV2). […] Below this trace is plotted the instantaneous firing frequency vs. time; the dashed line reflects the average firing frequency during the 1-s epoch that preceded the first UV exposure (FIG. 41a). FIG. 41b depicts a summary of results from experiments of the type shown in a. Average spike frequencies were obtained for each cell in each of five 1-s epochs, then normalized to the pre-GABA/MPC088 firing frequency (n=8 cells from 4 animals). Error bars here and in c represent the SEM. Repeated-measures ANOVA on the aggregate data yielded F(3,21)=10.213, p<0.001. […] Significance was determined from post-hoc paired-sample t-tests corrected for multiple comparisons, which yielded p<0.02. […]
To further address whether MPC088 has non-specific effects on excitability, the spikes elicited in the experiment described in FIG. 41 were analyzed. […] Three action potential (AP) parameters were measured: peak amplitude, half width, and maximum rise slope. […] AP waveform parameters were calculated for pre-puff, blue light, and UV epochs. […]
For the voltage-clamp experiments of FIG. 40, each cell was […] between 1-6 trials of the drug application+light flash protocol. […] A peri-stimulus time histogram (PSTH) was calculated for each trial using 250-ms time bins; these were averaged across trials to produce a PSTH for the experiment, using the software TaroTools (Dr. Taro Ishikawa, Jikei University School of Medicine, Tokyo, Japan) and Igor Pro 6.2 (WaveMetrics, Inc., Lake Oswego, Oreg.).

SMILES strings stand for the structures.

For the compound `CC(C)c1cc(CCCC(=O)NCc2ccc(/N=N/c3ccc(C(=O)NCCN)cc3)cc2)cc(C(C)C)c1O` [MPC088, (E)-N-(2-Aminoethyl)-4-((4-((4-(4-hydroxy-3,5-diisopropylphenyl)butanamido)methyl)phenyl)diazenyl)benzamide], under “10 μM GABA + 30 μM MPC088, UV-Blue-UV flashes”, the “firing rate produced by blue light relative to that produced by UV light” value is 52±14%. Besides, under “10 μM GABA + 30 μM trans-dominant MPC088”, the “decrease of firing rate” value is listed as “approximately 50%”. For the setting “peak amplitude, half width, maximum rise slope”, the “effects on AP waveform” value is “no detectable effects”.
